Reference: ChEMBL document CHEMBL1201862, “PubChem BioAssay data set” (2004)
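Briefly, cells in 96-well plates were exposed to five compound concentrations for 48 h, and endpoints were estimated by linear interpolation. At the GI50, growth is halved.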 Active and inactive are the calls of the source. Rule as the data show it: active = GI50 up to about 1.1 µM and inactive = higher.

What was measured:
Experiment in all cases: growth of human tumour cells (NCI), 48 h
ACHN = test system: ACHN
CAKI-1 = test system: CAKI-1
COLO 205 = test system: COLO 205
DU-145 = test system: DU-145
HOP-92 = test system: HOP-92
LOX IMVI = test system: LOX IMVI
M14 = test system: M14
MOLT-4 = test system: MOLT-4
Malme-3M = test system: Malme-3M
NCI-H522 = test system: NCI-H522
OVCAR-4 = test system: OVCAR-4
OVCAR-8 = test system: OVCAR-8
PC-3 = test system: PC-3
RXF 393 = test system: RXF 393
SF-268 = test system: SF-268
SK-MEL-2 = test system: SK-MEL-2
SK-MEL-5 = test system: SK-MEL-5
SW-620 = test system: SW-620
U-251 = test system: U-251
UACC-62 = test system: UACC-62

Measured: GI50

COC(=O)C(CBr)CBr
inactive: ACHN 3.7 µM | CAKI-1 5.51 µM | COLO 205 1.27 µM | DU-145 16.6 µM | HOP-92 1.79 µM | LOX IMVI 2.6 µM | M14 2.15 µM | MOLT-4 1.69 µM | Malme-3M 2.2 µM | NCI-H522 2.14 µM | OVCAR-4 4.03 µM | OVCAR-8 3.41 µM | PC-3 10.2 µM | RXF 393 2.19 µM | SF-268 15.1 µM | SK-MEL-2 10.8 µM | SK-MEL-5 8.75 µM | SW-620 1.27 µM | U-251 5.56 µM | UACC-62 9.42 µM

COC(=O)C1CCCCCCCCCCC12SCCCS2 (stereo not given)
inactive: ACHN 19 µM | CAKI-1 26.3 µM | COLO 205 18.6 µM | DU-145 16.7 µM | HOP-92 19.4 µM | LOX IMVI 18.3 µM | M14 15.5 µM | MOLT-4 15.8 µM | Malme-3M 20.3 µM | NCI-H522 17.2 µM | OVCAR-4 16.5 µM | OVCAR-8 23.4 µM | PC-3 17.5 µM | RXF 393 19 µM | SF-268 23 µM | SK-MEL-2 18.6 µM | SK-MEL-5 18.7 µM | SW-620 27.2 µM | U-251 17.3 µM | UACC-62 25.6 µM
